This note sets out measurements from ChEMBL document CHEMBL1157539, “Thousands of chemical starting points for antimalarial lead identification” (Nature, 2010).

Non-standard residues stand in square brackets, D forms with d. Residues, ends and D or L forms follow the SMILES beside them. *: point of attachment. Butanoyl(4-(4-HOPh)) = O=C(CCCc1ccc(O)cc1)*

This experiment relates to Plasmodium falciparum. Description: GSK_TCMDC: Inhibition of Plasmodium falciparum 3D7 in whole erythrocytes, using parasite LDH activity as an index of growth. It is filed as functional, organism-based. As to conditions: Plasmodium falciparum, 3D7.

Take `CC1(CCc2ccccc2)N=C(Nc2ccc(Cl)cc2)N=C(N)C1c1ccc(Cl)c(Cl)c1` (configuration not stated): the XC50 stood at 221 nM.

On to `COc1cccc(NC(=O)Nc2cc(C)nc3ccccc23)c1`, for which the XC50 was 723 nM.

`COc1cccc(C(=O)NCc2cccs2)c1Oc1ccccc1` showed an XC50 of 63.5 nM.

As for `COc1ccc2[nH]c(C(=O)Nc3ccc4[nH]c(-c5ccccc5)nc4c3)cc2c1`, the XC50 stood at 834 nM.

With `CC(C)C1CCc2nc(N)nc(N)c2C1` (configuration not stated), the XC50 was 139 nM.

Turning to `N#Cc1cccc(Nc2nccc(NCC(O)c3cccc(C(F)(F)F)c3)n2)c1` (configuration not stated), the XC50 stood at 553 nM.

In the case of `O=C(Nc1ccc(Cl)c(Cl)c1)C1CCC(=O)N1[C@@H](Cc1ccccc1)C(=O)NCCc1ccc(Cl)cc1` (some centres not stated), the XC50 was 1100 nM.

Consider `CC1CC(NCCCNc2cc(=O)c3ccccc3[nH]2)c2cc(Cl)c(Cl)c(Cl)c21` (configuration not stated), for which the XC50 was 724 nM.

`COc1ccc2nccc([C@@H](O)CN3CCC(NC(=O)c4ccc(Cl)c([N+](=O)[O-])c4)CC3)c2c1`: the XC50 is 954 nM.

`Cc1nc(C)c(-c2ccc(Oc3ccc(Cl)cc3)cc2)c(O)c1I` gave an XC50 of 957 nM.

`N=C(N)NN=Cc1c2ccccc2c(Cl)c2ccc(Cl)cc12`: the XC50 amounted to 225 nM.

`OC(CNc1ccnc(Nc2ccc(Cl)cc2)n1)c1ccccc1C(F)(F)F` (configuration not stated) returned an XC50 of 788 nM.

`CCCC(CNCc1cccc(C)c1)CNc1cc(=O)c2ccccc2[nH]1` (configuration not stated) yielded an XC50 of 631 nM.

For the compound `O=C(Nc1cccc(F)c1)N(Cc1ccc(-c2cccc(CN3CCNCC3)c2)cc1)C1CCN(Cc2ccccc2)CC1`, the XC50 came to 763 nM.

As to `Clc1cc(Nc2ncnc3sc(C#Cc4ncc[nH]4)cc23)ccc1OCc1ccccn1`, the XC50 worked out at 1110 nM.

`COc1cc(Nc2nccc(N3CCC(NS(=O)(=O)c4ccc(NC(C)=O)cc4)CC3)n2)cc(OC)c1OC` yielded an XC50 of 965 nM.

In the case of `Cn1nc(-c2ccc(Cl)cc2)c2cc(C(=O)NCCN3CCOCC3)sc21`, the XC50 stood at 721 nM.

The compound `Cc1cc(-c2ccc(NC(=O)N3CCc4cc(Br)c(N5CCN(C)CC5)cc43)cc2)ccc1C#N` came in with an XC50 of 883 nM.

`COc1cc(C=Cc2ccc3ccccc3n2)cc(Br)c1OCC(=O)N(C)C` registered an XC50 of 1100 nM.

In turn, `O=C(Nc1ccon1)c1cc(-c2cccnc2)nc2ccc(Cl)cc12` came in with an XC50 of 786 nM.

For `CCc1c(C)c2ccc3c(c2oc1=O)CN(CCc1ccc(F)cc1)CO3`, the XC50 was found to be 1230 nM.

`CN(C)CCOc1cc(NC(=O)Nc2cccc([N+](=O)[O-])c2)ccc1I` came in with an XC50 of 743 nM.

In the case of `N=C(N)c1cc(Cl)cc(NC(=O)Nc2cc(Cl)cc(C(=N)N)c2)c1`, the XC50 stood at 719 nM.

In turn, `CN(C)CCC=C1c2ccccc2Sc2c(O)cc(Cl)cc21` gave an XC50 of 277 nM.

Consider `CCCO[C@H](C(=O)OC)[C@@H](CC1Cc2ccccc2C1)C(=O)NCCC1=CCCCC1`, for which the XC50 was 970 nM.

Turning to `CCC(C)NS(=O)(=O)c1ccc2nc(Nc3ccc(C)c(Cl)c3)n([C@H](C)C(C)(C)C)c2c1` (some centres not stated), the XC50 turned out to be 381 nM.

With `Cc1nc(C(C)Nc2nncc(-c3ccc(Cl)cc3)n2)cs1` (configuration not stated), the XC50 stood at 1330 nM.

Consider `CC1CCc2c(C(=O)N3CCc4ccccc4C3)csc2C1` (configuration not stated), for which the XC50 turned out to be 782 nM.

In turn, `Nc1nc(Nc2cccc(O)c2)nc2ccccc12` registered an XC50 of 791 nM.

On to `COc1cc2c(cc1C(F)(F)F)N(C(=O)Nc1cc(F)cc(-c3cncnc3)c1)CC2`, for which the XC50 amounted to 500 nM.

In the case of `Cc1[nH]c(C)c(-c2ccc(C#Cc3ccc(F)cc3F)cc2)c(=O)c1Br`, the XC50 is 30.1 nM.

In turn, `CCCCCCCCCCNCC(O)c1ccc(O)c(C(=O)OC)c1` (configuration not stated) yielded an XC50 of 717 nM.

For the compound `COc1ccc(CN2CCN(CCOC(c3ccccc3)c3ccc(Cl)cc3)CC2)c(O)c1` (configuration not stated), the XC50 worked out at 713 nM.

For `Cc1cc(CNCC2CCC(CNCCCc3ccccc3)CC2)ccc1O` (configuration not stated), the XC50 was 871 nM.

`Cc1ccc2nc(Cl)c3cc(C(=O)NCCCN4CCCC4)sc3c2c1` registered an XC50 of 1140 nM.

Turning to `Oc1ccc2nc(NCCCc3ccccc3)nc(NCCCc3ccccc3)c2c1`, the XC50 was determined as 398 nM.

Consider `Cc1n[nH]c2cc(Nc3ccnc(Nc4cccc(CN5CCOCC5)c4)n3)ccc12`, for which the XC50 is 1580 nM.

As for `Cc1cc(N[C@@H](CC(C)C)C(=O)NCc2cccc(F)c2)nc(NCC2CCCCC2)n1`, the XC50 was 834 nM.

Consider `N=C(N)Nc1nc(-c2cccc(NCCCCCCCCON3C(N)=NC(N)=NC34CCCCC4)c2)cs1`, for which the XC50 worked out at 226 nM.

In turn, `O=c1c(NCCCN(Cc2ccc(F)cc2)c2ccccn2)c(NCc2cccnc2)c1=O` returned an XC50 of 61.7 nM.

In the case of `Oc1ccc(Cc2ccccc2)cc1CNC1CCCCC1`, the XC50 worked out at 188 nM.

In the case of `Cn1c(NC(=O)CCCCCNC(=O)c2ccc(O)c(-c3ccc(Cl)c(Cl)c3)c2)nc2ccccc21`, the XC50 came to 726 nM.

`CC(=O)N/N=C/[C@H](CCc1ccccc1)NC(=O)[C@H](CC(C)C)NC(=O)c1ccc(OCCN2CCOCC2)cc1` yielded an XC50 of 222 nM.

`CC(=O)c1ccc(N2CCN(CCC3(c4ccc(Cl)c(Cl)c4)COCN(C(=O)c4ccccc4)C3)CC2)cc1` (configuration not stated) returned an XC50 of 925 nM.

The compound `Fc1cc(Cl)ccc1Nc1ccnc2cc(-c3ccc(CN4CCCCC4)o3)ccc12` gave an XC50 of 337 nM.

The compound `CC(C)(C)c1ccc(CNC(=O)c2ccc(-c3nc4cc(C(C)(C)C)ccc4[nH]3)cc2)cc1` came in with an XC50 of 840 nM.

The compound `CC(C)(C)c1ccc2[nH]c(-c3ccc(C(=O)NCCCc4ccccc4)cc3)nc2c1` had an XC50 of 801 nM.

On to `COc1cc2nc(N[C@@H](CO)c3ccccc3)nc(NCc3ccccc3)c2cc1OC`, for which the XC50 was determined as 657 nM.

`CCCNC(=O)CN1CN(c2ccccc2)C2(CCN(C(=O)c3ccc(C(C)(C)C)cc3)CC2)C1=O` showed an XC50 of 466 nM.

As to `Cc1c(F)cc(C(=O)NC2CC2)cc1-c1ccc2c(cnn2S(=O)(=O)c2ccc(C#N)cc2)c1`, the XC50 was found to be 100 nM.

Consider `O=C(Nc1ccc2ccccc2c1)N1CCC(NCc2cccc([N+](=O)[O-])c2)CC1`, for which the XC50 is 855 nM.

For the compound `CCNc1cc(C(=O)N[C@@H](Cc2ccccc2)[C@H](O)CNC2C3CC4CC(C3)CC2C4)cc(N2CCCCS2(=O)=O)c1` (some centres not stated), the XC50 worked out at 668 nM.

On to `FC(F)(F)c1cc(Nc2ccc(Oc3ccccc3)cc2)c2cc(-c3ccncc3)ccc2n1`, for which the XC50 worked out at 454 nM.

Compound `Cc1cc(N(CCN2CCCCC2)CCN2CCCCC2)nc(Nc2ccc(Cl)cc2)n1` yielded an XC50 of 269 nM.

On to `CCCCCCCC1CC(CC(=O)Nc2ccnc3ccc(OC)cc23)CN1` (configuration not stated), for which the XC50 was determined as 511 nM.

As for `Clc1ccc(CNc2ccnc(NCc3ccc4c(c3)OCCCO4)n2)c(Cl)c1`, the XC50 came out at 994 nM.

`c1cc(-c2ccc(CNC3CCOCC3)cc2)cc(-c2nc3ccccc3[nH]2)c1` returned an XC50 of 768 nM.

For the compound `N#Cc1ccc(-c2ccc(C(=O)NCCCCN3CCC(c4ccncc4)CC3)cc2)cc1`, the XC50 worked out at 813 nM.

Consider `COc1ccc(-c2nc(NC(=O)Cc3coc4cc(OC)ccc34)sc2C)cc1`, for which the XC50 came out at 609 nM.

For `COc1cc2c(cc1OCCN1CCC(N3CCCCC3)CC1)N(C(=O)/C=C/c1ccccc1OC(F)(F)F)CC2`, the XC50 is 590 nM.

Compound `COc1ccc(NC(=O)Nc2cccc(-c3ccc(-c4nc5cccc(C)c5[nH]4)s3)c2)cc1` displayed an XC50 of 671 nM.

Compound `CC1CCCCC1N(C)C1CCN(CCCNC(=O)C=Cc2ccccc2Cl)CC1` (configuration not stated) had an XC50 of 666 nM.

In turn, `N=C(N)NN=CC(=O)Nc1cc([N+](=O)[O-])cc([N+](=O)[O-])c1` returned an XC50 of 628 nM.

In turn, `CN1CCN(c2nsc3ccc(-c4ccc(NC(=O)Nc5ccccc5)cc4)cc23)CC1` registered an XC50 of 180 nM.

`Oc1ccc2[nH]cc(C3=CCN(CCc4ccccc4)CC3)c2c1`: the XC50 came to 313 nM.

As to `CN(c1cc(NC(=O)c2cccs2)ccn1)C1CCN(Cc2ccccc2)CC1`, the XC50 was determined as 1020 nM.

In turn, `COc1cccc(Nc2c(C(N)=O)cnc3ccc(-c4ccc([S+](C)[O-])cc4)cc23)c1` (configuration not stated) came in with an XC50 of 186 nM.

`CN=C(N)c1ccc(NC(=O)C=Cc2ccc(C(=O)Nc3ccc(C(N)=NC)cc3)cc2)cc1` came in with an XC50 of 31.4 nM.

With `CCNc1cc(C(=O)N[C@@H](Cc2ccccc2)[C@H](O)CNCCCc2ccc(OC)cc2)cc(N2CCCC2=O)c1`, the XC50 turned out to be 556 nM.

Consider `Cc1nc2nc(N)nc(N)c2c(C)c1Cc1ccc(C(F)(F)F)cc1`, for which the XC50 came to 747 nM.

As to `CNC(=O)c1cnc(Nc2ccc(N3CCN(C)CC3)c(C)c2)nc1NC`, the XC50 stood at 869 nM.

Compound `Cc1nc(C(=O)N2CCCC[C@H]2CNC(=O)c2ccc(-c3ccc(N4CCCC4=O)cc3C)cc2)c(-c2ccc(F)cc2)s1` came in with an XC50 of 459 nM.

`CS(=O)(=O)Nc1ccc2[nH]cc(C3CCN(CC4CCC(NC(=O)/C=C/c5ccccc5Cl)CC4)CC3)c2c1` (configuration not stated) showed an XC50 of 793 nM.

`CCOc1cc(C(=O)NCCCN2CCN(c3cccc(Cl)c3)CC2)ccc1-c1nc2cc(Cl)c(F)cc2[nH]1` showed an XC50 of 866 nM.

In turn, `CC1CN(CC(O)Cn2c3ccc(Br)cc3c3cc(Br)ccc32)CC(C)O1` (configuration not stated) displayed an XC50 of 776 nM.

Take `CCc1cn2c3c(cc(C(=O)N[C@@H](Cc4ccccc4)[C@H](O)CNC4CCOCC4)cc13)N(C)S(=O)(=O)C2`: the XC50 came to 87.7 nM.

Take `CCCCCCNC(=N)c1ccc2[nH]c(-c3ccc(O)cc3)nc2c1`: the XC50 is 190 nM.

Consider `O=C(NCC(=O)N1CCC[C@H]1C(=O)O)[C@@H](Cc1ccccc1)NC(=O)[C@@H]1CCCN1C(=O)CCCc1ccc(O)cc1` ({Butanoyl(4-(4-HOPh))}-P[dF]GP-OH), for which the XC50 turned out to be 1050 nM.

`CCCc1ccc(S(=O)(=O)NC2CCN(c3ccnc(Nc4ccc(OC)cc4)n3)C2)cc1` (configuration not stated) showed an XC50 of 1190 nM.

The compound `CCn1c(-c2nonc2N)nc2c(-c3cccc(NC(=O)Nc4cccc(C(F)(F)F)c4)c3)ncc(OCCCN)c21` showed an XC50 of 969 nM.

Compound `CC(C)Oc1ccc2ccccc2c1CNCCCCCCNCc1c(OC(C)C)ccc2ccccc12` gave an XC50 of 612 nM.

For `COc1cc2cc(C(=O)Nc3ccccc3)c(N)nc2cc1OC`, the XC50 came out at 1130 nM.

In turn, `O=C(CCC1CCCC1)N(Cc1ccc(-c2ccc(CNCCc3ccccc3)cc2)cc1)C1CCCNC1` (configuration not stated) yielded an XC50 of 1220 nM.

The compound `Cc1ccc(-c2ccc3c(c2)C=C(C(=O)NC2CCN(CCNC(=O)c4cccc(C(F)(F)F)c4)CC2)CCC3)cc1` displayed an XC50 of 512 nM.

For the compound `COc1ccc2nc(-c3ccccc3)cc(NCCCNc3cc(-c4ccccc4)nc4ccc(OC)cc34)c2c1`, the XC50 amounted to 122 nM.

`COc1cc(Cc2cnc(N)nc2N)ccc1OCc1cccc(Oc2ccccc2)c1` gave an XC50 of 1330 nM.

The compound `C=CCOC(=O)N1CCC(CNCc2ccc(-c3cccc(-c4nc5cccc(C)c5[nH]4)c3)cc2)C1` (configuration not stated) displayed an XC50 of 118 nM.
